Data: US20220386606A1, “SPECIFICALLY SUBSTITUTED 3-PHENYL-5-SPIROCYCLOPENTYL-3-PYRROLIN-2-ONES AND THEIR USE AS HERBICIDES” (Bayer Aktiengesellschaft, priority 2019, published 2022)

Assays:
ALOMY [1] = test: Pre-emergence herbicidal action against ALOMY; type: in vivo, Alopecurus myosuroides; details: 320 g/ha, scored visually after 3 weeks vs untreated controls
Method in brief: (§1)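 Seeds sown in sandy loam in wood-fiber pots and covered with soil; WP or EC formulations applied to covering soil surface as aqueous suspension/emulsion at 600 to 800 L/ha water plus 0.2% wetting agent. Greenhouse-grown; damage scored visually after 3 weeks versus untreated controls (100% = dead, 0% = like control).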

AVEFA [2] = test: Pre-emergence herbicidal action against AVEFA; type: in vivo, Avena fatua; details: 320 g/ha, scored visually after 3 weeks vs untreated controls
Method in brief: as §1

DIGSA [3] = test: Pre-emergence herbicidal action against DIGSA; type: in vivo, Digitaria sanguinalis; details: 320 g/ha, scored visually after 3 weeks vs untreated controls
Method in brief: as §1

ECHCG [4] = test: Pre-emergence herbicidal action against ECHCG; type: in vivo, Echinochloa crus-galli; details: 320 g/ha, scored visually after 3 weeks vs untreated controls
Method in brief: as §1

LOLRI [5] = test: Pre-emergence herbicidal action against LOLRI (Table 8, titled post-emergence at 320 g/ha); type: in vivo, Lolium rigidum; details: table stands in the pre-emergence section
Method in brief: as §1

SETVI [6] = test: Pre-emergence herbicidal action against SETVI; type: in vivo, Setaria viridis; details: 320 g/ha, scored visually after 3 weeks vs untreated controls
Method in brief: as §1

MATIN = test: Pre-emergence herbicidal action against MATIN; type: in vivo; details: 320 g/ha
From the text: (§2) Seeds of monocotyledonous and dicotyledonous weed plants and crop plants are laid out in sandy loam soil in wood-fiber pots and covered with soil. The compounds of the invention, formulated in the form of wettable powders (WP) or as emulsion concentrates (EC), are then applied to the surface of the covering soil as aqueous suspension or emulsion at a water application rate equating to 600 to 800 L/ha with addition of 0.2% wetting agent.
(§3) After the treatment, the pots are placed in a greenhouse and kept under good growth conditions for the trial plants. The damage to the test plants is scored visually after a test period of 3 weeks by comparison with untreated controls (herbicidal activity in percent (%): 100% activity=the plants have died, 0% activity=like control plants).

VIOTR = test: Pre-emergence herbicidal action against VIOTR; type: in vivo, Viola tricolor; details: 320 g/ha
From the text: as §2, §3

ALOMY [7] = test: Post-emergence herbicidal action against ALOMY; type: in vivo, Alopecurus myosuroides; details: 80 g/ha, visual assessment after about 3 weeks
Method in brief: (§4)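 Sow in sandy loam and grow in the greenhouse for 2 to 3 weeks to the one-leaf stage. Spray the compound as an aqueous suspension or emulsion with 0.2% wetting agent, 600 to 800 l/ha water rate. Hold about 3 weeks, then score damage visually versus controls.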

DIGSA [8] = test: Post-emergence herbicidal action against DIGSA; type: in vivo, Digitaria sanguinalis; details: 80 g/ha, visual assessment about 3 weeks after treatment vs untreated controls
Method in brief: as §4

ECHCG [9] = test: Post-emergence herbicidal action against ECHCG; type: in vivo, Echinochloa crus-galli; details: 80 g/ha, visual assessment about 3 weeks after treatment vs untreated controls
Method in brief: as §4

LOLRI [10] = test: Post-emergence herbicidal action against LOLRI; type: in vivo, Lolium rigidum; details: 80 g/ha, visual assessment about 3 weeks after treatment vs untreated controls
Method in brief: as §4

SETVI [11] = test: Post-emergence herbicidal action against SETVI; type: in vivo, Setaria viridis; details: 80 g/ha, visual assessment about 3 weeks after treatment vs untreated controls
Method in brief: as §4

AMARE = test: Pre-emergence herbicidal action against AMARE; type: in vivo, Amaranthus retroflexus; details: 320 g/ha
From the text: as §2, §3

AVEFA [12] = test: Post-emergence herbicidal action against AVEFA; type: in vivo, Avena fatua; details: 80 g/ha, visual assessment after about 3 weeks
Method in brief: as §4

VERPE = test: Pre-emergence herbicidal action against VERPE; type: in vivo, Veronica persica; details: 320 g/ha
From the text: as §2, §3

| Structure (SMILES) | Pre-emergence action against ALOMY in % (ALOMY [1]) | Pre-emergence action against AVEFA in % (AVEFA [2]) | Pre-emergence action against DIGSA in % (DIGSA [3]) | Pre-emergence action against ECHCG in % (ECHCG [4]) | Pre-emergence herbicidal action against LOLRI in % (LOLRI [5]) | Pre-emergence action against SETVI in % (SETVI [6]) | Pre-emergence action against MATIN in % (MATIN) | Pre-emergence action against VIOTR in % (VIOTR) | Post-emergence action against ALOMY in % (ALOMY [7]) | Post-emergence action against DIGSA in % (DIGSA [8]) | Post-emergence action against ECHCG in % (ECHCG [9]) | Post-emergence action against LOLRI in % (LOLRI [10]) | Post-emergence action against SETVI in % (SETVI [11]) | Pre-emergence action against AMARE in % (AMARE) | Post-emergence action against AVEFA in % (AVEFA [12]) | Pre-emergence action against VERPE in % (VERPE) |
| --- | --- | --- | --- | --- | --- | --- | --- | --- | --- | --- | --- | --- | --- | --- | --- | --- |
| C=CCOCC1CCC2(C1)NC(=O)C(c1c(C)cc(C#CC)cc1Br)=C2O (stereo not drawn) [Example I-67] | 100% | 80% | 100% | 100% | 100% | 100% | 80% | 100% | 100% | 90% | 90% | 90% | 90% |  |  |  |
| C#CCOCC1CCC2(C1)NC(=O)C(c1c(F)cc(C#CC)cc1OC)=C2O (stereo not drawn) [Example I-75] | 90% | 100% | 100% | 90% | 100% | 100% | 90% |  | 90% | 90% | 100% | 90% | 100% | 80% | 90% |  |
| C#CCOCC1CCC2(C1)NC(=O)C(c1c(C)cc(C#CC)cc1OC)=C2O (stereo not drawn) [Example I-77] | 100% | 100% | 100% | 100% | 100% | 100% | 80% |  | 100% | 90% | 100% | 90% | 100% | 100% | 90% |  |
| CC#Cc1cc(C)c(C2=C(OC(=O)C(C)C)C3(CCC(COCC)C3)NC2=O)c(Br)c1 (stereo not drawn) [Example P-37] | 100% | 80% | 100% | 100% | 100% | 100% |  | 100% | 100% | 100% | 100% | 100% | 100% | 100% | 90% | 80% |
| CC#Cc1cc(C)c(C2=C(OC(=O)C(C)C)C3(CCC(COCC)C3)NC2=O)c(OC)c1 (stereo not drawn) [Example P-50] | 100% | 100% | 100% | 100% | 100% | 100% |  | 100% | 100% | 90% | 100% | 100% | 100% | 100% | 90% | 80% |
| CC#Cc1cc(F)c(C2=C(OC(=O)C(C)C)C3(CCC(COCC)C3)NC2=O)c(OC)c1 (stereo not drawn) [Example P-67] | 100% | 80% | 100% | 100% | 90% | 100% |  |  | 100% |  | 100% | 90% | 100% | 80% | 90% | 80% |
| CC#Cc1cc(C)c(C2=C(OC(=O)OCC)C3(CCC(COCCOC)C3)NC2=O)c(OC)c1 (stereo not drawn) [Example P-79] | 100% | 100% | 100% | 100% | 100% | 100% |  | 100% | 100% | 90% | 100% | 90% | 100% | 80% | 90% | 90% |
| CC#Cc1cc(C)c(C2=C(OC(=O)OCC)C3(CCC(COCCC)C3)NC2=O)c(OC)c1 (stereo not drawn) [Example P-83] | 100% | 80% | 100% | 100% | 100% | 100% |  | 90% | 100% | 100% | 100% | 100% | 100% |  | 90% | 80% |
| CC#Cc1cc(F)c(C2=C(OC(=O)OCC)C3(CCC(COCCC)C3)NC2=O)c(OC)c1 (stereo not drawn) [Example P-84] | 100% | 80% | 100% | 100% | 100% | 100% | 80% | 80% |  | 90% | 100% | 80% | 100% |  | 80% |  |
| C#CCOCC1CCC2(C1)NC(=O)C(c1c(C)cc(C#CC)cc1Cl)=C2OC(=O)OCC (stereo not drawn) [Example P-99] | 100% | 100% | 100% | 100% | 100% | 100% |  | 100% | 100% | 90% | 100% | 90% | 100% | 100% | 80% | 100% |
